Test system: human subjects
Experiment: Phase I single-blind, placebo-controlled study of pyridostigmine bromide with or without aprepitant
Type: in vivo
Conditions: single oral dose of aprepitant (up to 125 mg) co-administered with first intolerable dose (FID) of oral pyridostigmine bromide; healthy volunteers; follow-up up to 8 hours
Description: The ability of the NK1-antagonists for preventing the adverse effects of pyridostigmine bromide in humans is tested.
A Phase I study is conducted in human subjects receiving a single oral dose of pyridostigmine bromide with or without a single oral dose of aprepitant, as a representative NK1-antagonist. The study was a single center, single-blind, placebo-controlled study.
To be enrolled in the study, participants are to meet the following inclusion/ex elusion criteria:
• 1. Male or female volunteers between the ages of 18 and 60 years inclusive are required to be in good health, to refrain from consuming xanthine, quinine and caffeine containing beverages, and to refrain from prolonged intensive physical exercise during the study conduct. • 2. […] Subjects had to be in good health according to their medical history including personal and family psychiatric history, physical examination, ECG, vital signs, and laboratory tests. […] Subjects had to be able to swallow multiple pills simultaneously. Key Exclusion Criteria • 1. Any clinically relevant acute or chronic disease which could interfere with the subjects' safety during the trial, expose them to undue risk, or interfere with the study objectives. • 2. History or presence of gastrointestinal, hepatic, or renal disease or other condition known to interfere with the absorption, distribution, metabolism or excretion of drugs. • 3. […]

With C[C@@H](O[C@H]1OCCN(Cc2nc(=O)[nH][nH]2)[C@H]1c1ccc(F)cc1)c1cc(C(F)(F)F)cc(C(F)(F)F)c1 [aprepitant, 5-[[(2R,3S)-2-[(1R)-1-[3,5-bis(trifluoromethyl)phenyl]ethoxy]-3-(4-fluorophenyl)-4-morpholinyl]methyl]-1,2-dihydro-3H-1,2,4-triazol-3-one] the “occurrence of gastro-intestinal AEs with pyridostigmine” value was “prevents or attenuates”.
